Data published in patent US20190335746A1, “ANTIMICROBIAL GAS RELEASING AGENTS AND SYSTEMS AND METHODS FOR USING THE SAME” (priority 2016, published 2019).

Assay: Spiking the product matrices with ClO2 gas
Conditions: product matrices spiked with ClO2 gas
Text: Headspace samples underwent a colorimetric analysis for ClO2 gas.

## [O][Cl+][O-] [ClO2 gas, chlorine dioxide]
  chlorine dioxide in the residual juice and tomato samples after spiking: no detectable chlorine dioxide
